In patent publication US20240181125A1, “COMPOSITIONS AND METHODS FOR SCARLESS WOUND HEALING IN DIABETES” (Washington University, priority 2022, published 2024):
“Also recorded” adds a separate entry of the source.

Tests used:
TGFβ1/p38 pathway = assay: Immunoblotting of p-p38 in HDFs; type: cell-based, human; details: high glucose
Method: For in vitro tests, protein lysates were collected from HDFs. Pre-cooled cell scrapers were used to detach the cells, and the cells were re-suspended in RIPA lysis buffer with the inhibitor cocktail. For in vivo tests, wound skin tissues were washed three times with pre-cooled DPBS, dissected into small pieces, and re-suspended in RIPA lysis buffer containing protease and phosphatase inhibitors. Homogenization was then performed thereafter with an ultrasonic processor (Cole Parmer). After centrifugation at 12,000 g for 20 min, the supernatants were collected, and protein concentrations were measured using a Bradford protein assay kit (Bio-rad).
The protein samples were separated by 10% Mini-PROTEAN TGX stain-free precast gels (Bio-rad) and transferred onto an immune-blot PVDF membrane. The blots were washed three times with DPBS containing 0.1% Tween 20 (PBST), blocked with 5% milk powder in PBST buffer for 40 min, and incubated with primary antibodies at specific dilutions overnight at 4° C. The primary antibodies included rabbit GAPDH antibody (1:5000, Cell signaling), rabbit anti-a-smooth muscle actin (α-SMA) antibody (1:2000, Cell signaling), rabbit anti-phospho-Smad2(Ser465/467)/Smad3 (Ser423/425) (1:500, Cell signaling), and rabbit anti-phospho-p38 (1:500, Cell signaling). The membranes were washed three times with PBST and incubated with horseradish peroxidase (HRP)-conjugated secondary antibodies (1:2500). Immunoblots were then washed with PBST and detected with a WesternBright HRP substrate detection kit (Advansta). The ChemiDoc XPS+system (Bio-rad) was used to image the blots.

[1] = In vitro release of peptide from hydrogel; type: physicochemical; details: loadings 10, 20, 50 μg/mL; three weeks
Method: To characterize the ECG release properties of the NIPAAm-based hydrogels disclosed herein, the following experiments were conducted. Hydrogel samples were synthesized with varying levels of ECG loading: 10 μg/mL, 20 μg/mL, and 50 μg/mL. The cumulative release of ECG from the hydrogel samples was assessed over a three-week period.
Wound dressings were fabricated by encapsulating PTβR2I in the hydrogel solution at 4° C. Briefly, PTβR2I solution was mixed with 6 wt. % hydrogel solution to reach final PTβR2I concentrations of 10 μg/mL, 20 μg/mL and 50 μg/mL. The mixtures were stirred at 4° C. for 12 hours. To determine PTβR2I release kinetics, the mixtures were first incubated at 37° C. to gel. After 1 hour, the supernatant was replaced by a release medium (DPBS with 1% P/S). The medium was then collected at pre-determined time points for 21 days, and a fresh release medium was added after each collection. The concentration of the released PTβR2I was determined by measuring the fluorescence intensity and calculating the corresponding concentration using a standard curve. The bioactivity of the released PTβR2I was evaluated by its ability to bind to the TβR2 on the HDFs. […] After 2 hours of incubation, the cells were washed three times with DPBS, and the fluorescence intensity was measured using a microplate reader (excitation/emission=485/535 nm).

[2] = tested on: dermal wounds of db/db mice; assay: Example 3 dermal wound closure, subcutaneous ECG/gel; type: in vivo
Method: db/db (Diabetic, […]) mice were used as an animal wound model. Dermal wounds were created using sterile 5 mm biopsy punches to expose the underlying muscle fascia, followed by subcutaneous injection of either control gel (6 wt %) or ECG/gel (50 μg/mL ECG in 6 wt % gel). In addition, a subgroup of the dermally-wounded mice was left untreated as controls. The dermal wounds of all mice were observed every other day until recovery using a digital camera to record successive images as well as measuring wound size using digital calipers. Image analysis using ImageJ was also performed to do a blind measurement of wound size. Subgroups of the mice were sacrificed at three different time points: day 3, day 8, and day 16. Skin samples were collected from the sacrificed mice for histology, immunohistochemistry analysis, and Western blot studies.

HDF, HaCaT, HAECs, BMM = assay: Example 4 in vitro survival, migration, cytokine and growth factor secretion with TGF-beta I and high glucose; type: cell-based, human, mouse
Source text: Human dermal fibroblasts (HDF), human skin keratinocytes (HaCaT), human artery endothelial cells (HAECs), and mouse bone marrow-derived macrophages (BMM) were used to test the in vitro survival, migration, secretion of inflammatory cytokines, and angiogenic growth factors in the presence of TGF-beta I and high glucose content.
FIG. 4B is a Western blot of p38 and GAPDH (control) expression for dermal fibroblasts under high glucose levels. Untreated cells (control) were compared with cells exposed to 10 ng/ml of TGFβ with ECG treatments of 0 μg/mL, 10 μg/mL, and 1 μg/mL.

Compound: TGFβ1: growth factor used as stimulus, 10 ng/ml
- increase in baseline phosphorylation of p38 relative to no TGFβ1 group (TGFβ1/p38 pathway): ~4 fold

Compound: Oc1ccc(-c2nc(-c3ccncc3)c(-c3ccc(F)cc3)[nH]2)cc1 [SB202190, reference compound]
- p-p38 expression (TGFβ1/p38 pathway; with TGFβ1): notably downregulated

Compound: ECGLLPVGRPDRVWRLCK
- duration of initial rapid release of ECG from hydrogel [1]: 3 to 4 days
- p38 expression in wound tissues ([2]; Western blot vs control gel): suppressed; also recorded: downregulated
- increase of blood vessel density and mature blood vessel density vs control ([2]; day 8): up to 4 fold
- survival and migration of keratinocytes, fibroblasts, and endothelial cells (HDF, HaCaT, HAECs, BMM; presence of TGF-beta I): improved
- angiogenic growth factor secretions (HDF, HaCaT, HAECs, BMM; various cell types): promoted
- pro-inflammatory cytokines expression (HDF, HaCaT, HAECs, BMM; various cell types): suppressed
